According to patent publication EP0381374A1, “Phosphodiesterase inhibitors” (LES LABORATOIRES BEECHAM S.A., priority 1989, dated 1990):

What was measured:
[1] = test system: Canine cardiac myofibrillar Ca⁺⁺-dependent Mg⁺⁺ ATPase; experiment: Measurement of myofibrillar Ca++-dependent Mg++-ATPase activity; assay type: biochemical; settings: Concentration: 3 x 10⁻⁵ molar; for Max ATPase activity(%): percent change of ATPase activity for pCa = 5.47; for Shift in pCa50 (ΔpCa50): shift of the pCa giving 50% of the maximal control ATPase activity, 21°C, pH 7.0
Description: 1. Measurement of myofibrillar Ca++-dependent Mg++-ATPase activity
The effect on Ca++sensitivity and on maximal activity of myofibrillar Ca++-dependent Mg++-ATPase was determined on canine cardiac myofibrils.
(a) Contractile protein preparation
Cardiac myofibrils free of membrane contaminants were prepared from left ventricular tissue of dog hearts using a modification of the method described by SOLARO et al, Biochem. Biophys. Acta, 245, 259-262, (1971). Before centrifugation, the heart homogenate was filtered through gauze.
After Triton X-100 treatments, the myofibrillar fraction was washed once by resuspension and centrifugation in 10 volumes of 1 mM EGTA, […] KCl, 30 mM imidazole, 2 mM MgCl₂, pH 7.0. The pellet was then washed three times in 10 volumes of the same buffer without EGTA. Before the last centrifugation, the suspension of myofibrils was filtered through a stainless steel sieve with 0.25 mm meshes.
Myofibrils were kept in pellet overnight. Before use, the pellet was suspended in a small amount of buffer, the protein concentration was determined by the method of BRADFORD M., Anal. Biochem., 1976, 72, 248 and adjusted in order to have a concentration between 6 and 7mg/ml, using gamma globuline as standard.
(b) Myofibrillar ATPase activity
Ca++-dependent myfibrillar ATPase activity was determined at 21 °C, pH 7.0, by measuring the rate of release of inorganic phosphate. All assays were performed within 24hrs. of final purification, using the method described by SOLARO and RUEGG, CIRC. RES., 51, 290-4,(1982). Reaction mixtures (4ml) containing 0.6 - 0.7 mg/ml myofibrillar protein, 80mM KCl, 20 mM imidazole, 3 mM MgCl₂, 1 mM EGTA, the desired amount of CaCl₂, and the indicated concentration of drug or appropriate vehicle were preincubated for 6 min. prior to assay. The amount of CaCl₂ was varied between 0 and 0.9 mM and the pca (-log free Ca++) computed using 2.514 x 10⁶ M⁻¹ as the apparent affinity of Ca++ for EGTA at pH 7.0.
Reactions were initiated by the addition of Na₂ATP to final concentration of 2 mM. After an incubation period of 12 min., reactions were quenched by the addition of an equal volume of ice-cold 10% trichloroacetic acid. The protein was pelleted by centrifugation (2000g, 15 min.) and Pi was assayed in the supernatant fraction using a modification of the method described by LANZETTA et al, Anal. Biochem., 100, 95-97, (1979).
The following solutions were prepared: • (1) 3.7% ammonium heptamolybdate in 0.12 N H₂SO₄ • (2) 0.074% malachite green oxalate in 1% polyvinylic alcohol.
The colour reagent was prepared by mixing an equal volume of solution (1) and (2) 15 min. before the assay. For the assay, 1700 µl of 1% H₂SO₄ and 1 ml of colour reagent were added to 100 µl of sample. Colour development occurred at room temperature for 30 min. and was quenched by the addition of 200 µl of 1 M tri-potassium citrate. The absorbance was measured at 620 millimicrons.
The effect of each compound, tested at the indicated concentration, on the relation between pCa and percent activation was determined taking 100% for the maximum ATPase activity obtained with vehicle alone. The effect on Ca++ sensitivity was quantified by measuring the shift of the pCa giving 50% of the maximal control ATPase activity.
The effect on maximal ATPase activity was expressed as the percent change of ATPase activity for pCa = 5.47.

[2] = molecular target: T1, CGI-PDE (i.e., c-GMP-inhibited PDE) (Canis lupus familiaris, UniProt A0A8I3NYE0); experiment: Inhibition of cardiac phosphodiesterases, Fraction IV (CGI-PDE); assay type: biochemical; settings: canine left ventricle PDE Fraction IV
T1 construct: isoforms of canine left ventricle were separated by column ion exchange chromatography; from tissue; host or cells: canine left ventricle, Fractogel TSK DEAE 650 fraction IV
T1 sequence (A0A8I3NYE0 1-1135): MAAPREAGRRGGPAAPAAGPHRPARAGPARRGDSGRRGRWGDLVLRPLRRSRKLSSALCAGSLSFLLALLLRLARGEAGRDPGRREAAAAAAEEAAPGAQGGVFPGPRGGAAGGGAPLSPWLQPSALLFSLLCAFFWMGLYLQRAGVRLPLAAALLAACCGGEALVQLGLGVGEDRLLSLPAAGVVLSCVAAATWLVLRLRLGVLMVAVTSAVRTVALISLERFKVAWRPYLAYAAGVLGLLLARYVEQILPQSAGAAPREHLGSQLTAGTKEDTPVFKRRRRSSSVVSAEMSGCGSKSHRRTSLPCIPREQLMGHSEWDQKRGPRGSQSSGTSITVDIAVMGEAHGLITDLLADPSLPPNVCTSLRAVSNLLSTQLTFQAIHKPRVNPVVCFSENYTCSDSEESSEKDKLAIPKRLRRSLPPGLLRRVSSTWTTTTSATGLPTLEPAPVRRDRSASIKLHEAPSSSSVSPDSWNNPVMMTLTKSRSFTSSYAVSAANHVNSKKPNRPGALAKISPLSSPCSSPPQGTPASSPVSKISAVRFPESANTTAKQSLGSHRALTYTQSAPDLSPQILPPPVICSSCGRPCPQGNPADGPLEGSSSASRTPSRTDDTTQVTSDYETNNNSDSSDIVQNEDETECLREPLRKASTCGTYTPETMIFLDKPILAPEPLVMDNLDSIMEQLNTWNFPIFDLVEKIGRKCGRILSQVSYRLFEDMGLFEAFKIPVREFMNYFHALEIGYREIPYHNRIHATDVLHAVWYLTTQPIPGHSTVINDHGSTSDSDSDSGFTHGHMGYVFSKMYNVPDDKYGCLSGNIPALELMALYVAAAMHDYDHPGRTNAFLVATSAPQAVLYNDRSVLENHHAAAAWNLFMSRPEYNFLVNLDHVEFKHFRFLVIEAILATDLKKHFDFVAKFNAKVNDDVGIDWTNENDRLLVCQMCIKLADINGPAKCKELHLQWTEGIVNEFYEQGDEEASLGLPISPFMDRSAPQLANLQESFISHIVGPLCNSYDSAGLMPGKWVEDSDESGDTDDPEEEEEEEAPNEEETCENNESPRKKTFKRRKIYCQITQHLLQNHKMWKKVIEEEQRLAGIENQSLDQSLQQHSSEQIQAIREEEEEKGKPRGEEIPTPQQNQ
Description: 2. Inhibition of Cardiac Phosphodiesterases
The phosphodiesterases (PDE) isoforms of canine left ventricle were separated by column ion exchange chromatography, using a minor modification of the method previously described by Alvarez et al. (Mol. Pharmacol., 1986, 29, 554-560). A Fractogel TSK DEAE 650 column was used and the PDEs were eluted using a continuous sodium acetate gradient (50 to 500 mM). The flow rate was 1.2ml/min and fractions of c.a. 8ml were collected as described by Weishaar et al. (Biochem. Pharmacol., 1986, 35, 787-800).
Four isoforms were identified • i) Fraction I or CAM-PDE (i.e. Ca⁺⁺/calmodulin-activated PDE), which hydrolyses both c-AMP and c-GMP, and presents a low Km for c-AMP over a wide range of concentration. It is activated by Ca⁺⁺/calmodulin. • ii) Fraction II or CGS-PDE (i.e. c-GMP-stimulated PDE), which hydrolyses more specifically c-GMP, and presents a high Km, for c-AMP over a wide range of concentration. It is stimulated by c-GMP. • iii) Fraction III or NCGI-PDE (i.e. not c-GMP-inhibited PDE), which hydrolyses more specifically c-AMP and presents two relatively low Km sites of affinity. It is not inhibited by c-GMP. iv) Fraction IV or CGI-PDE (i.e., c-GMP-inhibited PDE), which also hydrolyses more specifically c-AMP, and also presents two relatively low Km site of affinity. It is inhibited by c-GMP.
The inhibitory effect of the test compounds was expressed as the IC₅₀, i.e. the concentration which inhibits the activity by 50%, this value being expressed in micromoles.

Compound	Max ATPase activity(%) [1]	Shift in pCa50 (ΔpCa50) [1]	IC50 [2] [µM]
CC1SC(=O)NN=C1c1ccc2c(c1)C1(CCCC1)C(=O)N2C(=O)c1ccc(N)cc1.Cl (stereo not drawn) [Example 1, 1′-[(4-Aminophenyl)carbonyl]-5′-(3,6-dihydro-6-methyl-2-oxo-2H-1,3,4-thiadiazin-5-yl)-spiro[cyclopentane-1,3′-[3H]-indol]-2′(1′H)-one, hydrochloride]	-18%	0.19	0.87
CC1SC(=O)NN=C1c1ccc2c(c1)C(C)(C)C(=O)N2C(=O)Nc1ccccc1 (stereo not drawn) [Example 2, 2,3-Dihydro-5-(3,6-dihydro-6-methyl-2-oxo-2H-1,3,4-thiadiazin-5-yl)-3,3-dimethyl-2-oxo-N-phenyl-1H-indole-1-carboxamide]	–	–	15
CCOC(=O)CN1C(=O)C(C)(C)c2cc(C3=NNC(=O)SC3C)ccc21 (stereo not drawn) [Example 3, Ethyl 2,3-dihydro-5-(3,6-dihydro-6-methyl-2-oxo-2H-1,3,4-thiadiazin-5-yl)-3,3-dimethyl-2-oxo-N-1H-indole-1-acetate]	–	0.23	6.7
CC1SC(=O)NN=C1c1ccc2c(c1)C(c1ccccc1)C(=O)N2 (stereo not drawn) [Example 4, 1,3-Dihydro-5-(3,6-dihydro-6-methyl-2-oxo-2H-1,3,4-thiadiazin-5-yl)-3-phenyl-2H-indol-2-one]	–	0.68	3.2
CC1SC(=O)NN=C1c1ccc2c(c1)C(C)(C)C(=O)N2Cc1ccccc1 (stereo not drawn) [Example 5, 1,3-Dihydro-5-(3,6-dihydro-6-methyl-2-oxo-2H-1,3,4-thiadiazin-5-yl)-3,3-dimethyl-1-(phenylmethyl)-2H-indol-2-one]	–	0.38	–
CC1SC(=O)NN=C1c1ccc2c(c1)C(C)(C)C(=O)N2c1ccccc1 (stereo not drawn) [Example 7, 1,3-Dihydro-5-(3,6-dihydro-6-methyl-2-oxo-2H-1,3,4-thiadiazin-5-yl)-3,3-dimethyl-1-phenyl-2H-indol-2-one]	–	0.20	–

Now from value to compound:

Max ATPase activity(%) [1]	Shift in pCa50 (ΔpCa50) [1]	IC50 [2] [µM]	Compound
+11%	0.32	–	1-Cyclohexylmethyl-5-(3,6-dihydro-6-methyl-2-oxo-2H-1,3,4-thiadiazin-5-yl)-1,3-dihydro-3,3-dimethyl-2H-indol-2-one [Example 9]
–	0.99	–	CC1SC(=O)NN=C1c1ccc2c(c1)C(C1CCCCC1)C(=O)N2 (stereo not drawn) [Example 10, 3-Cyclohexyl-1,3-dihydro-5-(3,6-dihydro-6-methyl-2-oxo-2H-1,3,4-thiadiazin-5-yl)-2H-indol-2-one]
–	0.21	–	O=C1NN=C(c2ccc3c(c2)C(Sc2ccccc2)C(=O)N3)CS1 (stereo not drawn) [Example 11, 1,3-Dihydro-5-(3,6-dihydro-2-oxo-2H-1,3,4-thiadiazin-5-yl)-3-phenylthio-2H-indol-2-one]
–	0.49	–	O=C1NN=C(c2ccc3c(c2)C(C2CCCCC2)C(=O)N3)CS1 (stereo not drawn) [Example 12, 3-Cyclohexyl-1,3-dihydro-5-(3,6-dihydro-2-oxo-2H-1,3,4-thiadiazin-5-yl)-2H-indol-2-one]
